Key:
[1] = system: CAL-120; details: 72 h
Procedure, shortened: (§1)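 To measure viability, fluorescence at 560/590 nm was read after 2.5 µl CellTiter-Blue had been added for 2 h at 37 °C. Cells from breast cancer lines had been seeded in 20 µl suspension onto 384-well plates pre-loaded with compound dissolved in 5 µl medium and kept for 72 h. EC50 comes from a fitted percent-inhibition dose-response curve censored at the highest concentration, after per-plate normalisation to vehicle and a positive kill control, Z'-factor checks, and removal of rows with zero drug sensitivity score.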

[2] = system: HCC1143; details: 72 h
Procedure, shortened: as §1

[3] = system: BT-549; details: 72 h
Procedure, shortened: (§2)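 Breast cancer cell lines in 20 µl suspension were added to 384-well plates already holding compound at 5 concentrations, spaced in 10-fold steps across a compound-specific 10,000-fold range, and incubated for 72 h. CellTox Green fluorescence (485/520 nm) was read first to measure cell death, followed by CellTiter-Glo luminescence for viability after 10 min at room temperature. Each plate was normalised to 0.1 % DMSO and a positive kill control. EC50 values came from dose-response curve fits and were censored at the top concentration.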

[4] = system: DU-4475; details: 72 h
Procedure, shortened: as §2

[5] = system: MDA-MB-436; details: 72 h
Procedure, shortened: as §2

[6] = system: Hs578T; details: 72 h
Procedure, shortened: as §2

[7] = system: MDA-MB-468; details: 72 h
Procedure, shortened: as §2

[8] = system: MCF-10A; details: 72 h
Procedure, shortened: as §2

[9] = system: CAL-51; details: 72 h
Procedure, shortened: as §2

[10] = system: CAL-120; details: 72 h; remark: listed apart in the source
Procedure, shortened: as §2

[11] = system: SK-BR-3; details: 72 h
Procedure, shortened: as §2

[12] = system: MFM-223; details: 72 h
Procedure, shortened: as §2

[13] = system: MDA-MB-231; details: 72 h
Procedure, shortened: as §2

[14] = system: BT-474; details: 72 h
Procedure, shortened: as §2

[15] = system: HCC1143; details: 72 h; remark: listed apart in the source
Procedure, shortened: as §2

[16] = system: BT-549; assay: normalised viability (% of control), CellTiter-Blue; higher = more viable cells (100 = DMSO, 0 = benzethonium chloride kill control); details: 1 nM; incubation time: 72 h
Experimental: (§3)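 DSRT, CellTiter-Blue viability, 72 h incubation. Signal is normalised to DMSO and benzethonium chloride controls. Value is the normalised response at dose 1.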

[17] = system: DU-4475; assay: as above; details: 1 nM; incubation time: 72 h
Experimental: as §3

[18] = system: MDA-MB-436; assay: as above; details: 1 nM; incubation time: 72 h
Experimental: as §3

[19] = system: Hs578T; assay: as above; details: 1 nM; incubation time: 72 h
Experimental: as §3

[20] = system: MDA-MB-468; assay: as above; details: 1 nM; incubation time: 72 h
Experimental: as §3

[21] = system: MDA-MB-453; assay: as above; details: 1 nM; incubation time: 72 h
Experimental: as §3

[22] = system: CAL-85-1; assay: as above; details: 1 nM; incubation time: 72 h
Experimental: as §3

[23] = system: CAL-51; assay: as above; details: 1 nM; incubation time: 72 h
Experimental: as §3

[24] = system: CAL-120; assay: as above; details: 1 nM; incubation time: 72 h
Experimental: as §3

[25] = system: HCC1599; assay: as above; details: 1 nM; incubation time: 72 h
Experimental: as §3

[26] = system: SK-BR-3; assay: as above; details: 1 nM; incubation time: 72 h
Experimental: as §3

[27] = system: HCC1937; assay: as above; details: 1 nM; incubation time: 72 h
Experimental: as §3

[28] = system: HDQ-P1; assay: as above; details: 1 nM; incubation time: 72 h
Experimental: as §3

[29] = system: CAL-148; assay: as above; details: 1 nM; incubation time: 72 h
Experimental: as §3

[30] = system: MFM-223; assay: as above; details: 1 nM; incubation time: 72 h
Experimental: as §3

[31] = system: MDA-MB-231; assay: as above; details: 1 nM; incubation time: 72 h
Experimental: as §3

[32] = system: BT-474; assay: as above; details: 1 nM; incubation time: 72 h
Experimental: as §3

[33] = system: HCC1143; assay: as above; details: 1 nM; incubation time: 72 h
Experimental: as §3

For `COc1ccc(-c2cc3c(C)nc(N)nc3n([C@H]3CC[C@H](OCCO)CC3)c2=O)cn1`, the “EC50, CellTiter-Blue viability” value [1] was 193 nM, the “EC50, CellTiter-Blue viability” value [2] was 418 nM and the “EC50, CellTiter-Glo” value [3] was 186 nM. For the same compound, the “EC50, CellTiter-Glo” value [4] was 756 nM, the “EC50, CellTiter-Glo” value [5] was 181 nM and the “EC50, CellTiter-Glo” value [6] was 238 nM. For the same compound, the “EC50, CellTiter-Glo” value [7] was 208 nM, the “EC50, CellTiter-Glo” value [8] was 122 nM and the “EC50, CellTiter-Glo” value [9] was 105 nM. The “EC50, CellTiter-Glo” value [10] was 123 nM, the “EC50, CellTiter-Glo” value [11] was 23.8 nM and the “EC50, CellTiter-Glo” value [12] was 261 nM. The “EC50, CellTiter-Glo” value [13] was 189 nM, the “EC50, CellTiter-Glo” value [14] was 162 nM and the “EC50, CellTiter-Glo” value [15] was 258 nM. For the same compound, the normalised viability [16] was 96.5%, the normalised viability [17] was 106% and the normalised viability [18] was 103%. For the same compound, the normalised viability [19] was 100%, the normalised viability [20] was 104% and the normalised viability [21] was 87.1%. It also gave a normalised viability [22] of 105%, a normalised viability [23] of 95.4% and a normalised viability [24] of 120%. The normalised viability [25] was 130%, the normalised viability [26] was 86.5% and the normalised viability [27] was 90.5%. For the same compound, the normalised viability [28] was 75.8%, the normalised viability [29] was 104% and the normalised viability [30] was 102%. It also gave a normalised viability [31] of 118%, a normalised viability [32] of 100% and a normalised viability [33] of 106%.

In the case of `O=C(Nc1c[nH]nc1-c1nc2ccc(CN3CCOCC3)cc2[nH]1)NC1CC1` [AT9283], the “EC50, CellTiter-Blue viability” value [1] was 144 nM, the “EC50, CellTiter-Blue viability” value [2] was 604 nM and the “EC50, CellTiter-Glo” value [3] was 406 nM. The “EC50, CellTiter-Glo” value [4] was 149 nM, the “EC50, CellTiter-Glo” value [6] was 157 nM and the “EC50, CellTiter-Glo” value [7] was 28.4 nM. The “EC50, CellTiter-Glo” value [8] was 102 nM, the “EC50, CellTiter-Glo” value [9] was 2.81 nM and the “EC50, CellTiter-Glo” value [10] was 146 nM. The “EC50, CellTiter-Glo” value [11] was 933 nM, the “EC50, CellTiter-Glo” value [12] was 191 nM and the “EC50, CellTiter-Glo” value [13] was 125 nM. The “EC50, CellTiter-Glo” value [14] was 74.7 nM, the “EC50, CellTiter-Glo” value [15] was 121 nM and the normalised viability [16] was 98.5%. For the same compound, the normalised viability [17] was 95.5%, the normalised viability [18] was 98.8% and the normalised viability [19] was 117%. It also gave a normalised viability [20] of 114%, a normalised viability [21] of 100% and a normalised viability [22] of 88.9%. The normalised viability [23] was 107%, the normalised viability [24] was 87.1% and the normalised viability [25] was 101%. For the same compound, the normalised viability [26] was 104%, the normalised viability [27] was 95.6% and the normalised viability [28] was 103%. The normalised viability [29] was 91.3%, the normalised viability [30] was 102% and the normalised viability [31] was 91.6%. The normalised viability [32] was 96.6% and the normalised viability [33] was 87.1%.

— the supplement of paper PMC4862054
